Source: article PMC10762078, “Role of UPF1-LIN28A interaction during early differentiation of pluripotent stem cells” (Nature Communications, 2024)

Legend:
CHA15 cells = assay: Flow cytometry (FACS) of OCT4- and NANOG-positive cells (Fig. 6c, Supplementary Fig. 6b); type: cell-based, human; settings: CHA15, CPP-peptide 10 μM; mean of 3 sets
Description: For CPP-conjugated peptide delivery, HeLa, 293T, and PA-1 cells were incubated with CPP-conjugated peptides or CPP-FITC at 2 μM in DMEM with 10% FBS for 12 h a day before cell harvest. hPSCs were treated with CPP-conjugated peptides at 10 μM in mTeSR Plus Medium, and the peptide-containing medium was changed every day over 10 days. The ROCK inhibitor (Tocris Bioscience, Y-27632) treated-hPSCs were dissociated into single cells using Accutase (Merck, SCR005) and differentiated into ectoderm, mesoderm, and endoderm using the STEMdiff Trilineage Differentiation Kit ([…] Technologies, 05230) following the manufacturer’s protocol. Differentiated cells treated with CPP-conjugated peptides were analysed at 0, 3, and 5 days for ectoderm and endoderm, and at 0, 3, and 4 days for mesoderm.
To evaluate the relative cell number expressing the indicated proteins, CHA15 cells with the indicated CPP-conjugated peptide were fixed with BD Cytofix Fixation Buffer (BD Biosciences Pharmingen, 554655) followed by permeabilization with 0.1% BSA/PBS solution supplemented with 10% NGS and 0.3% Triton X-100 for 1 h at 4 °C. After washing, cells were incubated with the primary antibodies (OCT4 1:1000, NANOG 1:1000, DLK1 1:1000, SOX2 1:1000, LHX2 1:1000) and then, secondary antibody, Alexa Fluor 488 (1:1000), was applied. The positive cells were determined using flow cytometry (FACSCanto, BD Pharmingen), and data was analysed using the Flow Jo-v10 software program.

hPSCs = assay: RT-qPCR of pluripotency and germ-layer markers during differentiation with CPP-peptides (Supplementary Fig. 7b-e); type: cell-based, human
[1] = Fig. s7d, day 3, mean of 3 replicates
[2] = Fig. s7d, day 4, mean of 3 replicates

## N-QKLDQKELQLEPM-C [P1, reference compound]
CHA15 cells
  NANOG-positive cells, FACS (relative), mean: 1
  OCT4-positive cells, FACS (relative), mean: 1
hPSCs; Day 0, replicate 1, Fig. s7e
  CXCR4 (RT-qPCR): 1.088
  FOXA1 (RT-qPCR): 1.247
  GATA4 (RT-qPCR): 0.7242
  SOX17 (RT-qPCR): 1.264
hPSCs; Day 0, replicate 2, Fig. s7e
  CXCR4 (RT-qPCR): 0.7848
  FOXA1 (RT-qPCR): 1.413
  GATA4 (RT-qPCR): 1.3517
  SOX17 (RT-qPCR): 0.8709
hPSCs; Day 0, replicate 3, Fig. s7e
  CXCR4 (RT-qPCR): 1.127
  FOXA1 (RT-qPCR): 0.3396
  GATA4 (RT-qPCR): 0.9241
  SOX17 (RT-qPCR): 0.8647
hPSCs; Day 3, replicate 1, Fig. s7e
  CXCR4 (RT-qPCR): 801.652
  FOXA1 (RT-qPCR): 110.429
  GATA4 (RT-qPCR): 30.0473
  SOX17 (RT-qPCR): 1651.55
hPSCs; Day 3, replicate 2, Fig. s7e
  CXCR4 (RT-qPCR): 485.59
  FOXA1 (RT-qPCR): 100.761
  GATA4 (RT-qPCR): 43.5025
  SOX17 (RT-qPCR): 1098.49
hPSCs; Day 3, replicate 3, Fig. s7e
  CXCR4 (RT-qPCR): 555.318
  FOXA1 (RT-qPCR): 171.159
  GATA4 (RT-qPCR): 37.4013
  SOX17 (RT-qPCR): 1780.82
hPSCs; Day 5, replicate 1, Fig. s7e
  CXCR4 (RT-qPCR): 1042.02
  FOXA1 (RT-qPCR): 247.532
  GATA4 (RT-qPCR): 61.3703
  SOX17 (RT-qPCR): 1087.63
hPSCs; Day 5, replicate 2, Fig. s7e
  CXCR4 (RT-qPCR): 799.656
  FOXA1 (RT-qPCR): 297.277
  GATA4 (RT-qPCR): 60.3509
  SOX17 (RT-qPCR): 1382.51
hPSCs; Day 5, replicate 3, Fig. s7e
  CXCR4 (RT-qPCR): 801.596
  FOXA1 (RT-qPCR): 395.679
  GATA4 (RT-qPCR): 57.9664
  SOX17 (RT-qPCR): 1398.03
hPSCs; CXCR4 day 3, mean of n = 3, Fig. s7e
  Mean CXCR4 (RT-qPCR): 614.2
hPSCs; CXCR4 day 5, mean of n = 3, Fig. s7e
  Mean CXCR4 (RT-qPCR): 881.1
hPSCs; FOXA1 day 5, mean of n = 3, Fig. s7e
  Mean FOXA1 (RT-qPCR): 313.5
hPSCs; Fig. s7b, mesoderm, day 4, mean of 3 replicates
  SOX2 mRNA level (RT-qPCR), mean: 0.001971
hPSCs; Fig. s7d, Day 0, replicate 1
  BMP2 mRNA level (RT-qPCR): 0.8054
  BMP4 mRNA level (RT-qPCR): 1.545
  CDH2 mRNA level (RT-qPCR): 1.016
  CXCR4 mRNA level (RT-qPCR): 0.9995
  SNAI1 mRNA level (RT-qPCR): 1.4406
  TBXT mRNA level (RT-qPCR): 1.3
hPSCs; Fig. s7d, Day 0, replicate 2
  BMP2 mRNA level (RT-qPCR): 1.199
  BMP4 mRNA level (RT-qPCR): 0.6508
  CDH2 mRNA level (RT-qPCR): 0.7569
  CXCR4 mRNA level (RT-qPCR): 1.121
  SNAI1 mRNA level (RT-qPCR): 0.9418
  TBXT mRNA level (RT-qPCR): 0.8652
hPSCs; Fig. s7d, Day 0, replicate 3
  BMP2 mRNA level (RT-qPCR): 0.9954
  BMP4 mRNA level (RT-qPCR): 0.8046
  CDH2 mRNA level (RT-qPCR): 1.227
  CXCR4 mRNA level (RT-qPCR): 0.8798
  SNAI1 mRNA level (RT-qPCR): 0.6176
  TBXT mRNA level (RT-qPCR): 0.8351
hPSCs; Fig. s7d, Day 3, replicate 1
  BMP2 mRNA level (RT-qPCR): 1.069
  BMP4 mRNA level (RT-qPCR): 26.604
  CDH2 mRNA level (RT-qPCR): 19.4651
  CXCR4 mRNA level (RT-qPCR): 690.154
  SNAI1 mRNA level (RT-qPCR): 17.0238
  TBXT mRNA level (RT-qPCR): 6332.26
hPSCs; Fig. s7d, Day 3, replicate 2
  BMP2 mRNA level (RT-qPCR): 1.012
  BMP4 mRNA level (RT-qPCR): 28.0652
  CDH2 mRNA level (RT-qPCR): 19.9537
  CXCR4 mRNA level (RT-qPCR): 760.409
  SNAI1 mRNA level (RT-qPCR): 25.1744
  TBXT mRNA level (RT-qPCR): 7659.6
hPSCs; Fig. s7d, Day 3, replicate 3
  BMP2 mRNA level (RT-qPCR): 1.524
  BMP4 mRNA level (RT-qPCR): 46.0509
  CDH2 mRNA level (RT-qPCR): 27.2966
  CXCR4 mRNA level (RT-qPCR): 857.014
  SNAI1 mRNA level (RT-qPCR): 26.6105
  TBXT mRNA level (RT-qPCR): 10449.6
hPSCs; Fig. s7d, Day 4, replicate 1
  BMP2 mRNA level (RT-qPCR): 0.2301
  BMP4 mRNA level (RT-qPCR): 13.0546
  CDH2 mRNA level (RT-qPCR): 16.734
  CXCR4 mRNA level (RT-qPCR): 712.401
  SNAI1 mRNA level (RT-qPCR): 5.736
  TBXT mRNA level (RT-qPCR): 3587.41
hPSCs; Fig. s7d, Day 4, replicate 2
  BMP2 mRNA level (RT-qPCR): 0.3418
  BMP4 mRNA level (RT-qPCR): 14.5702
  CDH2 mRNA level (RT-qPCR): 18.1378
  CXCR4 mRNA level (RT-qPCR): 778.248
  SNAI1 mRNA level (RT-qPCR): 15.183
  TBXT mRNA level (RT-qPCR): 4442.19
hPSCs; Fig. s7d, Day 4, replicate 3
  BMP2 mRNA level (RT-qPCR): 0.2814
  BMP4 mRNA level (RT-qPCR): 11.4814
  CDH2 mRNA level (RT-qPCR): 17.3255
  CXCR4 mRNA level (RT-qPCR): 495.057
  SNAI1 mRNA level (RT-qPCR): 11.0955
  TBXT mRNA level (RT-qPCR): 3830.03
hPSCs; [1]
  SNAI1 mRNA level (RT-qPCR), mean: 22.94
  TBXT mRNA level (RT-qPCR), mean: 8147
hPSCs; [2]
  BMP4 mRNA level (RT-qPCR), mean: 13.04
  CDH2 mRNA level (RT-qPCR), mean: 17.4
  TBXT mRNA level (RT-qPCR), mean: 3953
